# From ChEMBL document CHEMBL1201862, “PubChem BioAssay data set” (2004)
#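 Cultured in 96-well plates, cells were exposed to test compound for 48 hours across five concentrations. GI50 is the concentration that inhibits growth by half.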 The source made the active and inactive calls. Cut-off read from the data, not from the text of the source: active = GI50 up to about 1.1 µM and inactive = higher.
# Legend:
# Test in all cases: inhibition of tumour cell growth, NCI panel, 48 h
# 786-0 = test system: 786-0
# A498 = test system: A498
# A549 = test system: A549
# ACHN = test system: ACHN
# BT-549 = test system: BT-549
# CAKI-1 = test system: CAKI-1
# CCRF-CEM = test system: CCRF-CEM
# COLO 205 = test system: COLO 205
# DU-145 = test system: DU-145
# HCC 2998 = test system: HCC 2998
# HCT-116 = test system: HCT-116
# HCT-15 = test system: HCT-15
# HOP-62 = test system: HOP-62
# HOP-92 = test system: HOP-92
# HT-29 = test system: HT-29
# Hs-578T = test system: Hs-578T
# IGROV-1 = test system: IGROV-1
# K562 = test system: K562
# KM12 = test system: KM12
# M14 = test system: M14
# MCF7 = test system: MCF7
# MDA-MB-231 = test system: MDA-MB-231
# MDA-MB-435 = test system: MDA-MB-435
# MDA-N = test system: MDA-N
# MOLT-4 = test system: MOLT-4
# Malme-3M = test system: Malme-3M
# NCI-H226 = test system: NCI-H226
# NCI-H23 = test system: NCI-H23
# NCI-H460 = test system: NCI-H460
# NCI-H522 = test system: NCI-H522
# NCI/ADR-RES = test system: NCI/ADR-RES
# OVCAR-3 = test system: OVCAR-3
# OVCAR-4 = test system: OVCAR-4
# OVCAR-5 = test system: OVCAR-5
# OVCAR-8 = test system: OVCAR-8
# PC-3 = test system: PC-3
# RPMI-8226 = test system: RPMI-8226
# RXF 393 = test system: RXF 393
# SF-268 = test system: SF-268
# SF-295 = test system: SF-295
# SF-539 = test system: SF-539
# SK-MEL-28 = test system: SK-MEL-28
# SK-MEL-2 = test system: SK-MEL-2
# SK-MEL-5 = test system: SK-MEL-5
# SK-OV-3 = test system: SK-OV-3
# SN12C = test system: SN12C
# SNB-75 = test system: SNB-75
# SR = test system: SR
# SW-620 = test system: SW-620
# T47D = test system: T47D
# TK-10 = test system: TK-10
# U-251 = test system: U-251
# UACC-257 = test system: UACC-257
# UACC-62 = test system: UACC-62
# UO-31 = test system: UO-31
structure (smiles),measurement,setting,value
O=C1CC(=O)NC(NN2C(=O)/C(=C/c3ccc(Cl)cc3)N=C2c2ccccc2)=N1,GI50,786-0,17 µM (inactive)
same,GI50,A498,16.9 µM (inactive)
same,GI50,A549,14.6 µM (inactive)
same,GI50,ACHN,17.4 µM (inactive)
same,GI50,BT-549,15.8 µM (inactive)
same,GI50,CAKI-1,72.6 µM (inactive)
same,GI50,CCRF-CEM,6.4 µM (inactive)
same,GI50,COLO 205,16.8 µM (inactive)
same,GI50,DU-145,30.1 µM (inactive)
same,GI50,HCC 2998,11.7 µM (inactive)
same,GI50,HCT-116,15.8 µM (inactive)
same,GI50,HCT-15,15 µM
same,GI50,HOP-62,15.5 µM (inactive)
same,GI50,HOP-92,12.4 µM (inactive)
same,GI50,HT-29,16.4 µM (inactive)
same,GI50,Hs-578T,14.3 µM (inactive)
same,GI50,IGROV-1,13.2 µM (inactive)
same,GI50,K562,9.62 µM (inactive)
same,GI50,KM12,13 µM (inactive)
same,GI50,M14,14.5 µM (inactive)
same,GI50,MCF7,21.2 µM (inactive)
same,GI50,MDA-MB-231,17.9 µM (inactive)
same,GI50,MDA-MB-435,15.2 µM (inactive)
same,GI50,MDA-N,15.8 µM (inactive)
same,GI50,MOLT-4,4.73 µM (inactive)
same,GI50,Malme-3M,17.3 µM (inactive)
same,GI50,NCI-H226,16.9 µM (inactive)
same,GI50,NCI-H23,16 µM (inactive)
same,GI50,NCI-H460,9.53 µM (inactive)
same,GI50,NCI-H522,10.1 µM (inactive)
same,GI50,NCI/ADR-RES,14.9 µM (inactive)
same,GI50,OVCAR-3,15.9 µM (inactive)
same,GI50,OVCAR-4,5.64 µM (inactive)
same,GI50,OVCAR-5,15.1 µM (inactive)
same,GI50,OVCAR-8,14.5 µM (inactive)
same,GI50,PC-3,14 µM (inactive)
same,GI50,RPMI-8226,11.3 µM (inactive)
same,GI50,RXF 393,14.1 µM (inactive)
same,GI50,SF-268,14.1 µM (inactive)
same,GI50,SF-295,14.5 µM (inactive)
same,GI50,SF-539,16.8 µM (inactive)
same,GI50,SK-MEL-28,19.1 µM (inactive)
same,GI50,SK-MEL-2,15.5 µM (inactive)
same,GI50,SK-MEL-5,17.7 µM (inactive)
same,GI50,SK-OV-3,23 µM (inactive)
same,GI50,SN12C,16.8 µM (inactive)
same,GI50,SNB-75,29.1 µM (inactive)
same,GI50,SR,4.71 µM (inactive)
same,GI50,SW-620,17.4 µM (inactive)
same,GI50,T47D,28.6 µM (inactive)
same,GI50,TK-10,16.5 µM (inactive)
same,GI50,U-251,15.6 µM (inactive)
same,GI50,UACC-257,17.8 µM (inactive)
same,GI50,UACC-62,12.5 µM (inactive)
same,GI50,UO-31,16.3 µM (inactive)
